Measured values taken from patent US10829520B2, “Beta-hairpin peptidomimetics” (POLYPHOR AG, priority 2015, dated 2020).
Where a SMILES comes first, the peptide text is derived from it. Bridges are numbered along the chain shown (N, C = ends). Roman numbers before positions name the chains, in order. [ ]: non-standard residue; d: D form. NMeDab = CN[C@@H](CCN)C(=O)O; Tle = CC(C)(C)[C@H](N)C(=O)O; dDab = NCC[C@@H](N)C(=O)O; Nle = CCCC[C@H](N)C(=O)O; Orn = NCCC[C@H](N)C(=O)O; Dab = NCC[C@H](N)C(=O)O

What was measured:
Format in all cases: cell-based
[1] = test system: Acinetobacter baumannii 872842; details: 872842
[2] = test system: Acinetobacter baumannii DSM 30008; details: DSM 30008
Outline: (§1)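 MIC in μg/mL; CLSI microdilution; cation-adjusted Mueller-Hinton II with Polysorbate 80 (0.002%); 10^6 CFU/mL; 35° C, 18-20 h.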

[3] = test system: Escherichia coli 926415; details: 926415
[4] = test system: Escherichia coli ATCC 25922; details: ATCC 25922
Outline: as §1

[5] = test system: Klebsiella pneumoniae 968733; details: 968733
[6] = test system: Klebsiella pneumoniae SSI #3010; details: SSI #3010
Outline: as §1

[7] = test system: Pseudomonas aeruginosa ATCC 27853; details: ATCC 27853
Outline: as §1

[8] = test system: human red blood cells (hRBC); assay: Hemolysis of human red blood cells; details: red cells of human, 1 h, 100
Outline: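 Fresh human red blood cells are washed in PBS, then shaken with peptide (100 μg/mL) at 37° C. for 1 h, final erythrocyte density about 0.9×10^9 cells/mL. After centrifugation, diluted supernatants are read at 540 nm against buffer (0%) and Triton X-100 (100%) lysis controls.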

SMILES	Acinetobacter baumannii 872842 MIC [1]	Acinetobacter baumannii DSM 30008 MIC [2]	Escherichia coli 926415 MIC [3]	Escherichia coli ATCC 25922 MIC [4]	Klebsiella pneumoniae 968733 MIC [5]	Klebsiella pneumoniae SSI #3010 MIC [6]	Pseudomonas aeruginosa ATCC 27853 MIC [7]	Hemolysis at 100 μg/mL [8]
CCCC[C@@H]1NC(=O)[C@@H]2CCCN2C(=O)[C@H]2CCCN2C(=O)[C@H](CO)NC(=O)[C@H](C)NC(=O)[C@H](C(C)(C)C)NC(=O)[C@H](CCN)NC(=O)[C@H](Cc2c[nH]c3ccccc23)NC(=O)[C@H](CCN)NC(=O)[C@@H](CCN)NC(=O)[C@H](CCC(=O)N[C@H](CCN)C(=O)N[C@H]2CCNC(=O)[C@H]([C@@H](C)O)NC(=O)[C@H](CCN)NC(=O)[C@H](CCN)NC(=O)[C@H](CC(C)C)NC(=O)[C@@H](Cc3ccccc3)NC(=O)[C@H](CCN)NC2=O)NC(=O)[C@H](CCN)NC(=O)[C@H](Cc2ccc(O)cc2)NC(=O)[C@H](CO)NC1=O [Ex. 65] (I: cyclo([Nle]SY[Dab]E[dDab][Dab]W[Dab][Tle]AS[dP]P) / II: [dDab][Dab][Dab][dF]L[Dab][Dab]T; amide I:5-II:N; lactam II:2-II:C)	4 µg/mL	2 µg/mL	1 µg/mL	1 µg/mL	2 µg/mL	1 µg/mL	1 µg/mL	<1%
CCCC[C@@H]1NC(=O)[C@@H]2CCCN2C(=O)[C@H]2CCCN2C(=O)[C@H](CO)NC(=O)[C@H](C)NC(=O)[C@H](C(C)(C)C)NC(=O)[C@H](CCN)NC(=O)[C@H](Cc2c[nH]c3ccccc23)NC(=O)[C@H](CCN)NC(=O)[C@@H](CCN)NC(=O)[C@H](CC(=O)N[C@@H](CCN)C(=O)N[C@H]2CCNC(=O)[C@H]([C@@H](C)O)NC(=O)[C@H](CCN)NC(=O)[C@H](CCN)NC(=O)[C@H](CC(C)C)NC(=O)[C@@H](Cc3ccccc3)NC(=O)[C@H](CCN)NC2=O)NC(=O)[C@H](CCN)NC(=O)[C@H](Cc2ccc(O)cc2)NC(=O)[C@H](CO)NC1=O [Ex. 67] (I: cyclo([Nle]SY[Dab]D[dDab][Dab]W[Dab][Tle]AS[dP]P) / II: [Dab][Dab][Dab][dF]L[Dab][Dab]T; amide I:5-II:N; lactam II:2-II:C)	4 µg/mL	1 µg/mL	2 µg/mL	1 µg/mL	2 µg/mL	2 µg/mL	1 µg/mL	<1%
CCCC[C@@H]1NC(=O)[C@@H]2CCCN2C(=O)[C@H]2CCCN2C(=O)[C@H](CO)NC(=O)[C@H](C)NC(=O)[C@H](C(C)(C)C)NC(=O)[C@H](CCN)NC(=O)[C@H](Cc2c[nH]c3ccccc23)NC(=O)[C@H](CCN)NC(=O)[C@@H](CCN)NC(=O)[C@H](CCC(=O)N[C@H](CCN)C(=O)N[C@H]2CCNC(=O)[C@H]([C@@H](C)O)NC(=O)[C@H](CCN)NC(=O)[C@H](CCN)NC(=O)[C@H](CC(C)C)NC(=O)[C@@H](CC(C)C)NC(=O)[C@H](CCN)NC2=O)NC(=O)[C@H](CCN)NC(=O)[C@H](Cc2ccc(O)cc2)NC(=O)[C@H](CO)NC1=O [Ex. 72] (I: cyclo(W[Dab][Tle]AS[dP]P[Nle]SY[Dab]E[dDab][Dab]) / II: [dDab][Dab][Dab][dL]L[Dab][Dab]T; amide I:12-II:N; lactam II:2-II:C)	1 µg/mL	1 µg/mL	0.5 µg/mL	1 µg/mL	1 µg/mL	1 µg/mL	1 µg/mL	<1%
CCCC[C@@H]1NC(=O)[C@@H]2CCCN2C(=O)[C@H]2CCCN2C(=O)[C@H](CO)NC(=O)[C@H](C)NC(=O)[C@H](C(C)(C)C)NC(=O)[C@H](CCN)NC(=O)[C@H](Cc2c[nH]c3ccccc23)NC(=O)[C@H](CCN)NC(=O)[C@@H](CCN)NC(=O)[C@H](CC(=O)N(C)[C@@H](CCN)C(=O)N[C@H]2CCNC(=O)[C@H]([C@@H](C)O)NC(=O)[C@H](CCN)NC(=O)[C@H](CCN)NC(=O)[C@H](CC(C)C)NC(=O)[C@@H](CC(C)C)NC(=O)[C@H](CCN)NC2=O)NC(=O)[C@H](CCN)NC(=O)[C@H](Cc2ccc(O)cc2)NC(=O)[C@H](CO)NC1=O [Ex. 73] (I: cyclo(W[Dab][Tle]AS[dP]P[Nle]SY[Dab]D[dDab][Dab]) / II: [NMeDab][Dab][Dab][dL]L[Dab][Dab]T; amide I:12-II:N; lactam II:2-II:C)	0.5 µg/mL	0.25 µg/mL	0.5 µg/mL	0.25 µg/mL	0.5 µg/mL	0.5 µg/mL	0.25 µg/mL	1%

Further lines, with some results ahead:

Acinetobacter baumannii 872842 MIC [1]	Acinetobacter baumannii DSM 30008 MIC [2]	Escherichia coli 926415 MIC [3]	Escherichia coli ATCC 25922 MIC [4]	Klebsiella pneumoniae 968733 MIC [5]	Klebsiella pneumoniae SSI #3010 MIC [6]	Pseudomonas aeruginosa ATCC 27853 MIC [7]	SMILES	Hemolysis at 100 μg/mL [8]
4 µg/mL	1 µg/mL	2 µg/mL	0.25 µg/mL	2 µg/mL	1 µg/mL	1 µg/mL	CCCC[C@@H]1NC(=O)[C@@H]2CCCN2C(=O)[C@H]2CCCN2C(=O)[C@H](CO)NC(=O)[C@H](C)NC(=O)[C@H](C(C)(C)C)NC(=O)[C@H](CCN)NC(=O)[C@H](Cc2c[nH]c3ccccc23)NC(=O)[C@H](CCN)NC(=O)[C@@H](CCN)NC(=O)[C@H](CC(=O)N[C@H](CCN)C(=O)N[C@H]2CCNC(=O)[C@H]([C@@H](C)O)NC(=O)[C@H](CCN)NC(=O)[C@H](CCN)NC(=O)[C@H](CC(C)C)NC(=O)[C@@H](Cc3ccccc3)NC(=O)[C@H](CCN)NC2=O)NC(=O)[C@H](CCN)NC(=O)[C@H](Cc2ccc(O)cc2)NC(=O)[C@H](CO)NC1=O [Ex. 66] (I: cyclo([Nle]SY[Dab]D[dDab][Dab]W[Dab][Tle]AS[dP]P) / II: [dDab][Dab][Dab][dF]L[Dab][Dab]T; amide I:5-II:N; lactam II:2-II:C)	1%
4 µg/mL	1 µg/mL	2 µg/mL	0.5 µg/mL	2 µg/mL	1 µg/mL	1 µg/mL	CCCC[C@@H]1NC(=O)[C@@H]2CCCN2C(=O)[C@H]2CCCN2C(=O)[C@H](CO)NC(=O)[C@H](C)NC(=O)[C@H](C(C)(C)C)NC(=O)[C@H](CCN)NC(=O)[C@H](Cc2c[nH]c3ccccc23)NC(=O)[C@H](CCN)NC(=O)[C@@H](CCN)NC(=O)[C@H](CC(=O)N(C)[C@@H](CCN)C(=O)N[C@H]2CCNC(=O)[C@H]([C@@H](C)O)NC(=O)[C@H](CCN)NC(=O)[C@H](CCN)NC(=O)[C@H](CC(C)C)NC(=O)[C@@H](Cc3ccccc3)NC(=O)[C@H](CCN)NC2=O)NC(=O)[C@H](CCN)NC(=O)[C@H](Cc2ccc(O)cc2)NC(=O)[C@H](CO)NC1=O [Ex. 69] (I: cyclo([Nle]SY[Dab]D[dDab][Dab]W[Dab][Tle]AS[dP]P) / II: [NMeDab][Dab][Dab][dF]L[Dab][Dab]T; amide I:5-II:N; lactam II:2-II:C)	2%
2 µg/mL	1 µg/mL	1 µg/mL	1 µg/mL	8 µg/mL	2 µg/mL	0.5 µg/mL	CCCC[C@@H]1NC(=O)[C@@H]2CCCN2C(=O)[C@H]2CCCN2C(=O)[C@H](CO)NC(=O)[C@H](C)NC(=O)[C@H](C(C)(C)C)NC(=O)[C@H](CCN)NC(=O)[C@H](Cc2c[nH]c3ccccc23)NC(=O)[C@H](CCC(=O)N[C@@H](CCN)C(=O)N[C@H]2CCNC(=O)[C@H]([C@@H](C)O)NC(=O)[C@H](CCN)NC(=O)[C@H](CCN)NC(=O)[C@H](CC(C)C)NC(=O)[C@@H](CC(C)C)NC(=O)[C@H](CCN)NC2=O)NC(=O)[C@@H](CCN)NC(=O)[C@H](CCCN)NC(=O)[C@H](CCN)NC(=O)[C@H](Cc2ccc(O)cc2)NC(=O)[C@H](CO)NC1=O [Ex. 70] (I: cyclo([Nle]SY[Dab][Orn][dDab]EW[Dab][Tle]AS[dP]P) / II: [Dab][Dab][Dab][dL]L[Dab][Dab]T; amide I:7-II:N; lactam II:2-II:C)	<1%
1 µg/mL	0.5 µg/mL	0.25 µg/mL	0.125 µg/mL	2 µg/mL	2 µg/mL	0.5 µg/mL	CCCC[C@@H]1NC(=O)[C@@H]2CCCN2C(=O)[C@H]2CCCN2C(=O)[C@H](CO)NC(=O)[C@H](C)NC(=O)[C@H](C(C)(C)C)NC(=O)[C@H](CCN)NC(=O)[C@H](Cc2c[nH]c3ccccc23)NC(=O)[C@H](CCN)NC(=O)[C@@H](CCN)NC(=O)[C@H](CC(=O)N[C@@H](CCN)C(=O)N[C@H]2CCNC(=O)[C@H]([C@@H](C)O)NC(=O)[C@H](CCN)NC(=O)[C@H](CCN)NC(=O)[C@H](CC(C)C)NC(=O)[C@@H](CC(C)C)NC(=O)[C@H](CCN)NC2=O)NC(=O)[C@H](CCN)NC(=O)[C@H](Cc2ccc(O)cc2)NC(=O)[C@H](CO)NC1=O [Ex. 71] (I: cyclo([Nle]SY[Dab]D[dDab][Dab]W[Dab][Tle]AS[dP]P) / II: [Dab][Dab][Dab][dL]L[Dab][Dab]T; amide I:5-II:N; lactam II:2-II:C)	<1%
